Source: US5358964A, “Benzylidene-lactone and their thiocarbonyl analogs as inhibitors of proteoglycan degradation” (Warner-Lambert Company, priority 1993, dated 1994)

Test system: IL-1-induced proteoglycan degradation in bovine nasal cartilage
Test: Bovine Nasal Cartilage (BNC) assay: inhibition of IL-1-induced proteoglycan degradation (chondroitin sulfate release, 1,9-DMB)
Format: cell-based
Settings: Bos taurus, bovine nasal cartilage explants, IL-1β (500 U); for IC50: 48 h with compound + 24 h fresh media, dose responses 10, 1, 0.1 μM
Text: The BNC (bovine nasal cartilage) assay provides a model for evaluating chrondroprotective compounds that block cartilage degradation through inhibition of enzyme activity or by altering the gene expression of the matrix metalloproteinase stromelysin.
Bovine nasal cartilage is obtained from a local slaughter house (Milan, Mich.); cell culture reagents from Gibco (Grand Island, N.Y.); human recombinant Interleukin-1β (IL-1β) from Boehringer Mannheim (Indianapolis, Ind.); DMB from Polysciences (Warrington, Pa.); Falcon 24 well flat-bottom tissue culture plates from Becton Dickinson (Lincoln Park, N.J.); disposable 20-mL scintillation vials from Kimble Glass (Vinland, N.J.); Papain from Sigma (P-3125, St. Louis, Miss.); high purity dimethyl sulfoxide from Burdic & Jackson (081-1, Distributed by Baxter Healthcare, McGraw Park, Ill.); Sarstedt vials for radioimmune assays (Sarstedt, Newton, N.C.); Sarstedt 96-vial aluminum racks (Sarstedt, Newton, N. C.); Cetus Pro/Pette (Perkin Elmer, Norwalk, Conn.).
The assay is accomplished in two phases. The cartilage plugs are first incubated with IL-1 in the presence of compounds. The amount of proteoglycan released is then quantified by measuring chondroitin sulfate present in the media using the 1,9-Dimethylmethylene Blue Assay.
Cartilage Culture. Bovine nasal septum is dissected free of surrounding tissue and wiped with 70% alcohol. A sterile cork borer is used to remove 5-mm cartilage disks of 2 to 3 mm thickness. Explants are equilibrated for 96 hours in F-12 supplemented with 10% fetal calf serum (FCS) and antibiotics at 37° C. in a humidified atmosphere of 95% air and 5% CO2. Explants are then rinsed with 1 mL F-12 Nutrient Mixture (without phenol red) in order to remove traces of FCS. Each treatment group is done in triplicate allowing: controls (500 μL F-12 medium + 110 μL PBS with 0.1% BSA + 7 μL DMSO); IL-1β (500 μL F-12 medium without phenol red + 100 μL IL-1β (500 U) + 7 μL DMSO + 10 μL PBS with 0.1 % BSA); and dose responses (10, 1, and 0.1 μM) (F-12 medium without phenol red + 100 μL IL-1β (500 U) + 7 μL compound dissolved in DMSO + 10 μL PBS with 0.1% BSA), to be tested per each 24-well plate. The cartilage plugs are incubated in the presence of conditioned media (IL-1β + compound) for 48 hours. […]
Quantitation of Cartilage Degradation. The ability of a compound to inhibit proteoglycan released from the cartilage plugs is quantified by measuring chondroitin sulfate. […] This color change is measured using a Titertek Multiscan MCC 340 plate reader at 540 nm. […] It is necessary to dilute (1:5, 1:10) the medium before a […] is performed by adding 10 μL of collected media to 290 μL DMF (16 mg dye/1 L of 0.1M formate buffer, pH 3.5, containing 5 mL ethanol) and reading […]. […]

Row | Structure (SMILES) | IC50 [µM] | further results
1 | Cc1ccc(Cl)c(Nc2ccccc2/C=C2\CCOC2=O)c1Cl [Example 1, (E)-3-[[2-[(2,6-Dichloro-3-methylphenyl)amino]phenyl]methylene]4,5-dihydro-2(3H)-furanone] | 0.39 | –
2 | O=C1OCC/C1=C\c1ccccc1Nc1cccc(C(F)(F)F)c1 [Example 3, (E)-4,5-Dihydro-3-[[2-[[3-(trifluoromethyl)phenyl]-amino]phenyl]methylene]-2(3H)-furanone] | 0.52 | –
3 | O=C1OCC/C1=C\c1ccccc1Nc1ccccc1 [Example 4, (E)-4,5-Dihydro-3-[[2-(phenylamino)phenyl]methylene]2(3H) -furanone] | – | inhibition at 0.1 µM (@ 0.10 μM, read-out: Percent Inhibition @ μM): 70%
4 | Cc1ccc(Cl)c(Nc2ccccc2/C=C2\CCOC2=S)c1Cl [Example 2, (E)-3-[[2-[(2,6-Dichloro-3-methylphenyl)amino]phenyl]methylene]-4,5-dihydro-2(3H) -furanthione] | – | inhibition at 10 µM (@ 10.0 μM, read-out: Percent Inhibition @ μM): > 50%
